Earlier results as cited in US20090253620A1, “METHODS AND COMPOSITIONS FOR TREATING GASTROINTESTINAL RADIOSENSITITIVITY IN A SUBJECT” (WASHINGTON UNIVERSITY IN ST. LOUIS, priority 2005, published 2009).

Key:
[1] = system: intestinal mesenchymal cells; conditions: CONV-R wt mice
[2] = system: mice; conditions: CONV-R wt mice

Question: With Fgf-2: fibroblast growth factor-2 as the substance, how does the “TBI-induced intestinal mesenchymal apoptosis” value [1] read?
Answer: attenuates

Question: What about the TBI-associated mortality [2] of the same substance?
Answer: decreases
